Results from patent US7981867B2, “Use of des-aspartate-angiotensin I” (priority 2005, dated 2011).
Values joined by “and” are separate entries in the source; they are usually repeats but may differ in a detail not shown here. Equal values may be shown once. Read-outs that look alike come from different tables or passages of the source.

Legend:
[1] = test system: Influenza A/Aichi/2/68 virus; assay type: in vivo, BALB/c mice; conditions: for Percentage Weight Change of Individual Mouse: i.p. 60 nmole/kg for 7 days from weight loss 15% or greater, mice 1-7 = c8-c14
diabetic KKAy mice [2] = test: Oral glucose tolerance test in diabetic KKAy mice, intraperitoneal treatment; assay type: in vivo; design: Serum glucose level: unit not given here; conditions: for Serum glucose level: oral glucose tolerance test
Protocol: (§1) The diabteic KKAy mice were divided into four groups consisting of 6 animals per group. Animals in the control group were intraperitoneally administered 0.1 mL saline. Animals in the second, third, and fourth groups were similarly administered with 100, 200, 400 nmole/kg des-aspartate-angiotensin I, respectively. Treatment with saline and des-aspartate-angiotensin I was carried out daily for 4 weeks. Following this, animals were fasted overnight for 16 hours and oral glucose tolerance test was performed as follows: blood was withdrawn from the orbital sinus for blood glucose determination (time of withdrawal was designated as 0 time), animals were then orally administered glucose (2 g/kg), and blood was withdrawn at 30, 60 and 120 min for blood glucose determination.
as §1, with “diabetic” for “diabteic”, “respectively in 0.1 ml of PBS.” for “respectively.”, “determination. The blood was allowed to clot and blood glucose was measured as serum glucose using a commercial glucose kit from Thermo Electron Corporation, Australia.” for “determination.”

diabetic KKAy mice [3] = test: Oral glucose tolerance test in diabetic KKAy mice, oral treatment; assay type: in vivo; design: Serum glucose level: unit not given here; conditions: for Serum glucose level: oral glucose tolerance test
Protocol: (§2) A dose-range finder experiment to determine the hypoglycaemic dose for orally administered des-aspartate-angiotensin I was also carried out. In this experiment, the animals in each of the three treatment groups of 7 diabetic KKAy mice were orally administered (by gavage) 200, 400, and 600 nmole/kg/day des-aspartate-angiotensin I in volume of 0.1 mL, respectively. Animals in the control group were similarly administered 0.1 mL water. The treatment period was 4 weeks. Oral glucose tolerance test was carried out as described in Example 5, except that blood was sampled at 0 and 30 min.
as §2, with “In” for “A dose-range finder experiment to determine the hypoglycaemic dose for orally administered des-aspartate-angiotensin I was also carried out. In”, “mL water,” for “mL,”, “EXAMPLE 7,” for “Example 5,”

diabetic GK rats = test: Oral glucose tolerance test in diabetic GK rats, oral treatment; assay type: in vivo; conditions: 400 or 600 nmole/kg oral daily; for hypoglycaemic action (30 min oral glucose tolerance test): 6 weeks of treatment
Protocol: The experiment was similarly carried as for KKAy mice. Control animals were administered (by gavage) 0.2 mL of water and groups 1 and 2 animals were similarly administered 400 and 600 nmole/kg des-aspartate-angiotensin I in 0.2 mL water, respectively, for a period 8 weeks. Oral glucose tolerance test (determined at 30 min) was carried out after 4 and 6 weeks of treatment. […] Data obtained after 8 week of treatment are given in another figure, FIG. 4.
Diabetic GK rats were divided into three groups, consisting of six animals in each group. Animals in groups 1 and 2 were administered, by gavage, one of the following: 400 or 600 nmole/kg of des-aspartate-angiotensin I in a volume of 0.2 mL water daily for up to 8 weeks. Control animals in group 3 were similarly administered 0.2 mL water. […] Animals were treated for a further 2 weeks and a full oral glucose tolerance test was performed thereafter.

GLUT4 = test: Insulin-induced translocation of GLUT4 to plasma membrane in skeletal muscle of diabetic GK rats; assay type: in vivo; conditions: oral treatment for 9 weeks; insulin 0.5 U/kg i.p., 30 minutes; Western blot
Description: Upper panel: Representative Western blot of plasma membrane GLUT4 in skeletal muscle of des-aspartate-angiotensin I treated and non treated diabetic GK rats. Lower panel: Relative (to the non insulin stimulated samples) levels of plasma membrane GLUT4 in skeletal muscle of des-aspartate-angiotensin I treated and control diabetic GK rats.
The diabetic GK rats described in EXAMPLE 9 were similarly treated for another week. At 9 weeks of treatment, animals were fasted overnight and half the animals in each group were intraperitoneally administered with PBS and the other half with insulin (0.5 U/kg). After 30 minutes, the animals were sacrificed by cervical dislocation. Hind limb skeletal muscles were rapidly excised and frozen in liquid nitrogen. Muscle samples were stored at −80° C. until used. The hindlimb muscles were subsequently thawed over an ice pack and plasma membranes were prepared as described by Dombrowaski et al. Thirty μg of protein from the 25% interface of the discontinued sucrose gradient was subjected to SDS-PAGE, transferred to PVDF sheets and incubated with anti-GLUT4 polyclonal primary antibody (1:800), washed and followed by incubation with anti-goat secondary antibody (1:10,000). The bands were detected at 49 kDa. […]

des-aspartate-angiotensin I (RVYIHPFHL; Angiotensin-1; UniProt P01019 26-34, looked up, fragment) [endogenous angiotensin peptide derived from angiotensin I by a specific aminopeptidase; purchased from Bachem]
Percentage Weight Change of Individual Mouse ([1]; post infection day 2): 96.3% and 97.1% and 96.6% and 97.3% and 95.8% and 99.3% and 99.8% | Percentage Weight Change of Individual Mouse ([1]; post infection day 3): 90.3% and 94.6% and 88.6% and 94.7% and 93.9% and 99.4% and 99.0% | Percentage Weight Change of Individual Mouse ([1]; post infection day 4): 85.7% and 86.2% and 83.3% and 92.1% and 90.8% and 97.5% and 96.6% | Percentage Weight Change of Individual Mouse ([1]; post infection day 5): 82.8% and 85.7% and 81.0% and 90.1% and 89.0% and 90.3% and 91.7% | Percentage Weight Change of Individual Mouse ([1]; post infection day 6): 80.8% and 82.7% and 78.2% and 85.2% and 88.8% and 87.5% and 87.4% | Percentage Weight Change of Individual Mouse ([1]; post infection day 7): 80.7% and 76.8% and 73.9% and 82.8% and 84.4% and 85.0% and 83.8% | Percentage Weight Change of Individual Mouse ([1]; post infection day 8): 79.7% and 72.9% and 71.2% and 83.2% and 82.4% and 86.2% and 80.4% | Percentage Weight Change of Individual Mouse ([1]; post infection day 9): 81.4% and 69.9% and 71.8% and 80.5% and 78.6% and 90.3% and 78.8% | Percentage Weight Change of Individual Mouse ([1]; post infection day 10): 80.5% and 69.0% and 73.2% and 82.3% and 77.7% and 93.0% and 77.5% | Percentage Weight Change of Individual Mouse ([1]; post infection day 11): 82.1% and 67.7% and 75.8% and 88.9% and 74.5% and 99.3% and 77.1% | Percentage Weight Change of Individual Mouse ([1]; post infection day 12): 80.0% and 64.9% and 80.1% and 88.9% and 74.5% and 101.2% and 78.9% | Percentage Weight Change of Individual Mouse ([1]; post infection day 13): 76.6% and 63.0% and 82.8% and 97.4% and 72.3% and 80.8% | Percentage Weight Change of Individual Mouse ([1]; post infection day 14): 75.2% and 61.3% and 86.3% and 102.8% and 74.0% and 82.6% | Percentage Weight Change of Individual Mouse ([1]; post infection day 15): 83.0% and 58.9% and 90.1% and 76.7% and 84.3% | Percentage Weight Change of Individual Mouse ([1]; post infection day 16): 90.3% and 58.9% and 94.6% and 78.6% and 89.4% | Percentage Weight Change of Individual Mouse ([1]; post infection day 17): 93.5% | animals survived and regained their original weight ([1]; i.p. 60 nmole/kg for 7 days, 7 treated animals): Six | influenza A virus in the lung homogenate of the surviving mice ([1]; i.p. 60 nmole/kg for 7 days, assayed in MDCK cells): No influenza A virus was detected | Fate of individual mouse (death) ([1]; i.p. 60 nmole/kg for 7 days, treated mouse 4, post infection day 18): died | Serum glucose level (diabetic KKAy mice [2]; 100 nmole/kg i.p. daily for 4 weeks, 0 min): 7.9 ± 0.9 | Serum glucose level (diabetic KKAy mice [2]; 100 nmole/kg i.p. daily for 4 weeks, 30 min): 21.2 ± 1.6 | Serum glucose level (diabetic KKAy mice [2]; 100 nmole/kg i.p. daily for 4 weeks, 60 min): 13.4 ± 1.3 | Serum glucose level (diabetic KKAy mice [2]; 100 nmole/kg i.p. daily for 4 weeks, 120 min): 9.9 ± 0.5 | Serum glucose level (diabetic KKAy mice [2]; 200 nmole/kg i.p. daily for 4 weeks, 0 min): 6.9 ± 0.9 | Serum glucose level (diabetic KKAy mice [2]; 200 nmole/kg i.p. daily for 4 weeks, 30 min): 16.0 ± 1.4 | Serum glucose level (diabetic KKAy mice [2]; 200 nmole/kg i.p. daily for 4 weeks, 60 min): 14.5 ± 0.9 | Serum glucose level (diabetic KKAy mice [2]; 200 nmole/kg i.p. daily for 4 weeks, 120 min): 8.7 ± 1.2 | Serum glucose level (diabetic KKAy mice [2]; 400 nmole/kg i.p. daily for 4 weeks, 0 min): 6.5 ± 0.6 | Serum glucose level (diabetic KKAy mice [2]; 400 nmole/kg i.p. daily for 4 weeks, 30 min): 15.4 ± 1.6 | Serum glucose level (diabetic KKAy mice [2]; 400 nmole/kg i.p. daily for 4 weeks, 60 min): 13.0 ± 1.1 | Serum glucose level (diabetic KKAy mice [2]; 400 nmole/kg i.p. daily for 4 weeks, 120 min): 8.8 ± 0.6 | blood glucose level at 30 and 60 min of the oral glucose tolerance test (diabetic KKAy mice [2]; doses of 200 and 400 nmole/kg/day i.p. for 4 weeks, vs control): significantly lowered | Serum glucose level (diabetic KKAy mice [3]; 200 nmole/kg/day oral (gavage) for 4 weeks, 0 min): 8.9 ± 1.0 | Serum glucose level (diabetic KKAy mice [3]; 200 nmole/kg/day oral (gavage) for 4 weeks, 30 min): 37.7 ± 2.6 | Serum glucose level (diabetic KKAy mice [3]; 400 nmole/kg/day oral (gavage) for 4 weeks, 0 min): 9.1 ± 1.6 | Serum glucose level (diabetic KKAy mice [3]; 400 nmole/kg/day oral (gavage) for 4 weeks, 30 min): 26.0 ± 3.6 | Serum glucose level (diabetic KKAy mice [3]; 600 nmole/kg/day oral (gavage) for 4 weeks, 0 min): 8.9 ± 0.7 | Serum glucose level (diabetic KKAy mice [3]; 600 nmole/kg/day oral (gavage) for 4 weeks, 30 min): 17.5 ± 1.9 | hypoglycaemic action (diabetic KKAy mice [3]; oral dose of 600 nmole/kg/day for 4 weeks, KKAy mice): significant hypoglycaemic action | hypoglycaemic action (30 min oral glucose tolerance test) (diabetic GK rats): significant hypoglycaemic action was detected | hypoglycaemic action (30 min oral glucose tolerance test) (diabetic GK rats; listed as DAA-1): exerts hypoglycaemic action | hypoglycaemic action (full oral glucose tolerance test) (diabetic GK rats; 8 weeks of treatment): significantly expressed | insulin-induced translocation of GLUT4 to the plasma membrane in skeletal muscle (GLUT4): significantly enhances
